Data as given in patent publication US9018214B2, “Bicyclic heterocycle compounds and their uses in therapy” (Astex Therapeutics Limited, priority 2011, dated 2015).
pEC50, pIC50: −log10 of the molar value. Structures can show the parent of a compound that is named as a salt. Where two headings read alike, the source gives them in different places.

Tests used:
[1] = molecular target: BIR3 domain of human cIAP-1 (residues 267-363) (Homo sapiens (Human), UniProt Q13490); assay: cIAP-1 in vitro competitive displacement binding assay (fluorescence polarization; Probe A AVPIK(5&6FAM)-amide or Probe B AbuRPFK(5&6FAM)-amide)
[2] = tested on: EVSA-T (human breast carcinoma); assay: Anti-proliferative activity, Alamar Blue assay, EVSA-T; assay type: cell-based; settings: Homo sapiens, EVSA-T; for pEC50: 72 h
[3] = molecular target: BIR3 domain of human XIAP (residues 252-350) (Homo sapiens (Human), UniProt P98170); assay: XIAP in vitro competitive displacement binding assay (fluorescence polarization); settings: for pIC50: read-out: IC50 or PI Xiap: IC50
[4] = Probe A AVPIK(5&6FAM)-amide, read-out: IC50 or PI cIAP1: IC50
[5] = read-out: EC50, inhibition of cell growth
[6] = Probe B AbuRPFK(5&6FAM)-amide, read-out: IC50 or PI cIAP1: IC50
[7] = read-out: IC50 or PI cIAP1: IC50

How did the pIC50 [1] turn out when C[C@@H]1CN(CC(=O)N2CCc3ccc(Cc4ccccc4)cc32)CCN1 [Example 29, 1-(6-Benzyl-2,3-dihydro-indol-1-yl)-2-((R)-3-methyl-piperazin-1-yl)-ethanone hydrochloride salt] was run?
The pIC50 was > 5.00.

What about the pIC50 [1, 4] of the same molecule?
Its pIC50 is 5.85.

What about the pEC50 [2, 5] of the same molecule?
The pEC50 was > 5.00.

And the pEC50 ([2]; read-out: EVSA-T prolif (EC50))?
The pEC50 was 5.34.

How did the pIC50 [1] turn out when C[C@@H]1CN(CC(=O)N2CCc3cnc(Cc4ccccc4)cc32)CCN1 [Example 35, 1-(6-Benzyl-2,3-dihydro-pyrrolo[3,2-c]pyridin-1-yl)-2-((R)-3-methyl-piperazin-1-yl)-ethanone hydrochloride salt] was run?
Its pIC50 is > 6.00.

What about the pIC50 [1, 4] of the same molecule?
Its pIC50 is 6.02.

And the inhibition at 10 µM ([2]; read-out: EVSA-T prolif: % inhibition)?
The inhibition at 10 µM was 28%.

C[C@@H]1CN(CC(=O)N2CC(C)(C)c3ccc(Cc4ccccc4)cc32)[C@@H](CO)CN1 [Example 42, 1-(6-Benzyl-3,3-dimethyl-2,3-dihydro-indol-1-yl)-2-((2R,5R)-2-hydroxymethyl-5-methyl-piperazin-1-yl)-ethanone trifluoroacetate salt] was tested. Which pEC50 ([2]; read-out: EVSA-T prolif (EC50)) did it give?
Its pEC50 is 5.59.

How did the pEC50 ([2]; read-out: EVSA-T prolif (EC50)) turn out when COC[C@H]1CN[C@H](C)CN1CC(=O)N1CC(C)(C)c2ccc(Cl)cc21 [Example 44, 1-(6-Chloro-3,3-dimethyl-2,3-dihydro-indol-1-yl)-2-((2R,5R)-2-methoxymethyl-5-methyl-piperazin-1-yl)-ethanone hydrochloride salt] was run?
The pEC50 was 5.18.

How did the pEC50 ([2]; read-out: EVSA-T prolif (EC50)) turn out when COC[C@H]1CN[C@H](C)CN1CC(=O)N1CC(C)(C)c2cnc(Cl)cc21 [Example 62, 1-(6-Chloro-3,3-dimethyl-2,3-dihydro-pyrrolo[3,2-c]pyridin-1-yl)-2-((2R,5R)-2-methoxy-methyl-5-methyl-piperazin-1-yl)-ethanone hydrochloride salt] was run?
Its pEC50 is 5.42.

With COC[C@H]1CN[C@H](C)CN1CC(=O)N1CC(C)(C)c2cnc(CCC(C)C)cc21 [Example 75, 1-[3,3-Dimethyl-6-(3-methyl-butyl)-2,3-dihydro-pyrrolo[3,2-c]pyridin-1-yl]-2-((2R,5R)-2-methoxy-methyl-5-methyl-piperazin-1-yl)-ethanone] as the molecule, how does the pEC50 ([2]; read-out: EVSA-T prolif (EC50)) read?
Its pEC50 is 6.30.

COC[C@H]1CN[C@H](C)CN1CC(=O)N1CC(C)(C)c2cnc(Cc3cccc(C#N)c3)cc21 [Example 80, 3-[(1-{2-[(2R,5R)-2-(Methoxymethyl)-5-methylpiperazin-1-yl]acetyl}-3,3-dimethyl-1H,2H,3H-pyrrolo[3,2-c]pyridin-6-yl)methyl]benzonitrile hydrochloride salt] was tested. Which pIC50 [1, 6] did it give?
The pIC50 was 7.48.

What about the pEC50 ([2]; read-out: EVSA-T prolif (EC50)) of the same molecule?
Its pEC50 is 6.11.

How did the pIC50 [1, 6] turn out when COC[C@H]1CN[C@H](C)CN1CC(=O)N1CC(C)(C)c2cnc(Cc3cccc(OC)c3)cc21 [Example 89, 2-[(2R,5R)-2-(Methoxymethyl)-5-methylpiperazin-1-yl]-1-{6-[(3-methoxyphenyl)methyl]-3,3-dimethyl-1H,2H,3H-pyrrolo[3,2-c]pyridin-1-yl}ethan-1-one, hydrochloride salt] was run?
Its pIC50 is 7.80.

What about the pEC50 ([2]; read-out: EVSA-T prolif (EC50)) of the same molecule?
Its pEC50 is 6.00.

What does the source list for C[C@@H]1CN(CC(=O)N2CC(C)(C)c3cnc(Cc4ccccc4)cc32)[C@@H](C(=O)N(C)C)CN1 [Example 99, (2R,5R)-1-(2-{6-Benzyl-3,3-dimethyl-1H,2H,3H-pyrrolo[3,2-c]pyridin-1-yl}-2-oxoethyl)-N,N,5-trimethylpiperazine-2-carboxamide, hydrochloride salt]?
pIC50 [1, 6]: 7.92; pEC50 ([2]; read-out: EVSA-T prolif (EC50)): 6.74

C[C@@H]1CN(CC(=O)N2CC(C)(COCc3ccccc3)c3cnc(Cc4ccccc4)cc32)[C@@H](C(=O)N(C)C)CN1 (stereo partly drawn) [Example 104, (2R,5R)-1-(2-{6-Benzyl-3-[(benzyloxy)methyl]-3-methyl-1H,2H,3H-pyrrolo[3,2-c]pyridin-1-yl}-2-oxoethyl)-N,N,5-trimethylpiperazine-2-carboxamide, hydrochloride salt] was tested. Which inhibition at 0.01 µM ([1]; 3 h, Probe B, @ 0.01 μM, read-out: IC50 or PI cIAP1: PI) did it give?
Its inhibition at 0.01 µM is 71%.

And the pEC50 ([2]; read-out: EVSA-T prolif (EC50))?
The pEC50 was 6.31.

COC[C@H]1CN[C@H](C)CN1CC(=O)N1CC(C)(C)c2cnc(C(OC)c3ccccc3)cc21 (stereo partly drawn) [Example 132, 1-{6-[Methoxy(phenyl)methyl]-3,3-dimethyl-1H,2H,3H-pyrrolo[3,2-c]pyridin-1-yl}-2-[(2R,5R)-2-(methoxymethyl)-5-methylpiperazin-1-yl]ethan-1-one dihydrochloride] was tested. Which pEC50 ([2]; read-out: EVSA-T prolif (EC50)) did it give?
Its pEC50 is 6.18.

How did the pIC50 [1, 6] turn out when COC[C@H]1CN[C@H](C)CN1CC(=O)N1CC(C)(C)c2cc(-c3nc(C)no3)c(Cl)cc21 [Example 141, 1-[6-Chloro-3,3-dimethyl-5-(3-methyl-1,2,4-oxadiazol-5-yl)-2,3-dihydro-1H-indol-1-yl]-2-[(2R,5R)-2-(methoxymethyl)-5-methylpiperazin-1-yl]ethan-1-one] was run?
The pIC50 was 6.55.

What about the pEC50 [2, 5] of the same molecule?
The pEC50 was > 5.00.

And the pEC50 ([2]; read-out: EVSA-T prolif (EC50))?
Its pEC50 is 5.05.

With C[C@@H]1CN(CC(=O)N2CC(C)(C)c3cnc(Cc4ccc(F)cc4F)cc32)[C@@H](CN2CCCC2=O)CN1 [Example 179, 1-{[(2R,5R)-1-(2-{6-[(2,4-Difluorophenyl)methyl]-3,3-dimethyl-1H,2H,3H-pyrrolo[3,2-c]pyridin-1-yl}-2-oxoethyl)-5-methylpiperazin-2-yl]methyl}pyrrolidin-2-one hydrochloride] as the molecule, how does the inhibition at […] ([1]; 3 h, Probe B, @ 0.012 μM, read-out: IC50 or PI cIAP1: PI) read?
The inhibition at […] was 97%.

And the pEC50 ([2]; read-out: EVSA-T prolif (EC50))?
Its pEC50 is 8.36.

With COC[C@H]1CN[C@H](C)CN1CC(=O)N1CC(C)(C)c2cnc(C(C)(F)F)cc21 [Example 181, 1-[6-(1,1-Difluoroethyl)-3,3-dimethyl-1H,2H,3H-pyrrolo[3,2-c]pyridin-1-yl]-2-[(2R,5R)-2-(methoxymethyl)-5-methylpiperazin-1-yl]ethan-1-one dihydrochloride] as the molecule, how does the pIC50 [3] read?
Its pIC50 is 6.48.

And the pIC50 [1]?
Its pIC50 is > 6.00.

What about the pIC50 [1, 7] of the same molecule?
Its pIC50 is 6.60.

How did the pIC50 [3] turn out when COC[C@H]1CN[C@H](C)CN1CC(=O)N1CC(C)(C)c2nnc(Cl)cc21 [Example 183, 1-{3-Chloro-7,7-dimethyl-5H,6H,7H-pyrrolo[3,2-c]pyridazin-5-yl}-2-[(2R,5R)-2-(methoxymethyl)-5-methylpiperazin-1-yl]ethan-1-one hydrochloride] was run?
Its pIC50 is 5.77.

And the pIC50 [1]?
Its pIC50 is > 6.00.

And the pIC50 [1, 6]?
Its pIC50 is 6.20.

C[C@@H]1CN(CC(=O)N2CC(C)(C)c3cnc(C(C)(F)F)cc32)[C@@H](CN2CCCC2=O)CN1 [Example 184, dihydrochloride] was tested. Which pIC50 [1] did it give?
Its pIC50 is > 6.00.

And the pIC50 [1, 6]?
The pIC50 was 7.51.

What about the pEC50 ([2]; read-out: EVSA-T prolif (EC50)) of the same molecule?
Its pEC50 is 6.19.

How did the pIC50 [3] turn out when C[C@@H]1CN(CC(=O)N2CC(C)(C)c3ncc(C(=O)c4ccccc4)cc32)[C@@H](CN2CCCC2=O)CN1 [Example 187, 1-{[(2R,5R)-1-(2-{6-Benzoyl-3,3-dimethyl-1H,2H,3H-pyrrolo[3,2-b]pyridin-1-yl}-2-oxoethyl)-5-methylpiperazin-2-yl]methyl}pyrrolidin-2-one dihydrochloride] was run?
The pIC50 was 6.96.

What about the pIC50 [1, 7] of the same molecule?
The pIC50 was 7.49.

How did the pIC50 [1, 7] turn out when CCC(F)(F)c1cnc2c(c1)N(C(=O)CN1C[C@@H](C)NC[C@@H]1CN1CCCC1=O)CC2(C)C [Example 190, 1-{[(2R,5R)-1-{2-[6-(1,1-Difluoropropyl)-3,3-dimethyl-1H,2H,3H-pyrrolo[3,2-b]pyridin-1-yl]-2-oxoethyl}-5-methylpiperazin-2-yl]methyl}pyrrolidin-2-one hydrochloride] was run?
The pIC50 was 7.54.

What about the pEC50 ([2]; read-out: EVSA-T prolif (EC50)) of the same molecule?
Its pEC50 is 6.40.

How did the pIC50 [3] turn out when C[C@@H]1CN([C@@H](C)C(=O)N2CC(C)(C)c3ccc(C#N)cc32)CCN1 [Example 196, 3,3-Dimethyl-1-[(2S)-2-[(3R)-3-methylpiperazin-1-yl]propanoyl]-2,3-dihydro-1H-indole-6-carbonitrile hydrochloride] was run?
Its pIC50 is 5.25.

What about the pIC50 [1, 6] of the same molecule?
Its pIC50 is 4.51.

C[C@@H]1CN(CC(=O)N2CC(C)(C)c3ncc(C(F)(F)c4ccccc4)cc32)[C@@H](CN2CCCC2=O)CN1 [Example 210, 1-{[(2R,5R)-1-(2-{6-[Difluoro(phenyl)methyl]-3,3-dimethyl-1H,2H,3H-pyrrolo[3,2-b]pyridin-1-yl}-2-oxoethyl)-5-methylpiperazin-2-yl]methyl}pyrrolidin-2-one hydrochloride] was tested. Which pEC50 ([2]; read-out: EVSA-T prolif (EC50)) did it give?
Its pEC50 is 7.27.

How did the pEC50 ([2]; read-out: EVSA-T prolif (EC50)) turn out when CCCC(F)(F)c1cnc2c(c1)N(C(=O)CN1C[C@@H](C)NC[C@@H]1CN1CCCC1=O)CC2(C)C [Example 217, 1-{[(2R,5R)-1-{2-[6-(1,1-Difluorobutyl)-3,3-dimethyl-1H,2H,3H-pyrrolo[3,2-b]pyridin-1-yl]-2-oxoethyl}-5-methylpiperazin-2-yl]methyl}pyrrolidin-2-one hydrochloride] was run?
The pEC50 was 7.30.

C[C@@H]1CN(CC(=O)N2CC(C)(C)c3cnc(Cc4ccc(F)cc4F)cc32)[C@@H](CN2CCCC2)CN1 [Example 220, 1-{6-[(2,4-Difluorophenyl)methyl]-3,3-dimethyl-1H,2H,3H-pyrrolo[3,2-c]pyridin-1-yl}-2-[(2R,5R)-5-methyl-2-(pyrrolidin-1-ylmethyl)piperazin-1-yl]ethan-1-one dihydrochloride] was tested. Which pEC50 ([2]; read-out: EVSA-T prolif (EC50)) did it give?
Its pEC50 is 7.31.

How did the pEC50 ([2]; read-out: EVSA-T prolif (EC50)) turn out when CC(C)CC(F)(F)c1cnc2c(c1)N(C(=O)CN1C[C@@H](C)NC[C@@H]1CN1CCOCC1)CC2(C)C [Example 235, 1-[6-(1,1-Difluoro-3-methylbutyl)-3,3-dimethyl-1H,2H,3H-pyrrolo[3,2-b]pyridin-1-yl]-2-[(2R,5R)-5-methyl-2-(morpholin-4-ylmethyl)piperazin-1-yl]ethan-1-one] was run?
Its pEC50 is 7.51.

What does the source list for COC[C@H]1CN[C@H](C)CN1CC(=O)N1CC(C)(C)c2ccc(-c3nnn[nH]3)cc21 [Example 258, 1-[3,3-Dimethyl-6-(1H-tetrazol-5-yl)-2,3-dihydro-indol-1-yl]-2-((2R,5R)-2-methoxymethyl-5-methyl-piperazin-1-yl)-ethanone hydrochloride]?
inhibition at 10 µM ([3]; 1 h, @ 10 μM, read-out: IC50 or PI Xiap: PI): 58%; inhibition at 30 µM ([1]; 3 h, Probe B, @ 30 μM, read-out: IC50 or PI cIAP1: PI): 37%
